From patent publication US12139481B2, “Compositions comprising macrocycle derivatives incorporating bridged macrocycles and methods of producing and using same” (Southwestern Oklahoma State University, priority 2015, dated 2024)

Tests used:
[1] = tested on: Plasmodium falciparum D6 clone (Sierra Leon, chloroquine-sensitive); assay: In vitro antimalarial assay, chloroquine-sensitive D6 clone; type: cell-based; conditions: D6 clone; for IC50: converted with molecular weight, read-out: P. falciparum D6 IC50; for X more potent than chloroquine: molar IC50 ratio versus chloroquine
Procedure: (§1) The compounds were assayed for in vitro antimalarial activity against the W2 clone and D6 clone of the pathogenic Plasmodium falciparum. The strains of P. falciparum were obtained from the Division of Experimental Therapeutics, Walter Reed Army Institute of Research, Washington D.C. Strains of Sierra Leon D6 and Indochina W2 are chloroquine-sensitive and chloroquine-resistant, respectively. The parasite was grown in type A human RBCs and, two strains subcultured daily with fresh medium and blood cells. On the day of the assay, a suspension of infected blood cells (2% parasitemia and 2% hematocrit) was prepared using type A human red blood cells. Assays were performed by standard 96-well flat-bottomed microplate methods and done in duplicate at different concentrations. IC50 values were obtained from the dose curves. Artemisinin and chloroquine were included in each assay as the drug controls, and DMSO was used as vehicle control. The whole protocol was developed based on the published method of Makler. The cytotoxicity assays were also performed in parallel against the Vero cells, and the selectivity index was measured. A selectivity index of >9 was considered to indicate a lead for further development of antimalarial drug.

[2] = tested on: S. mansoni newly transformed schistosomula (NTS); assay: In vitro testing on Schistosoma mansoni newly transformed schistosomula (NTS), viability score; type: cell-based; conditions: 72 h
Procedure: Assays were prepared according to the laboratory SOP for the lab of Dr. Jennifer Keiser (Swiss Tropical and Public Health Institute, Basel). Harvested S. mansoni cercariae (Liberian strain) obtained from infected Biomphalaria glabrata snails were mechanically transformed into newly transformed schistosomula (NTS) following standard procedures. Briefly, snails were placed under light in the morning to stimulate cercarial shedding. The cercarial suspension was collected, cooled for 30 minutes, and then vigorously pipetted (30×) and vortexed (3 minutes). The suspension was then placed in the incubator (37° C. and 5% CO2) for 30 minutes, and the vortexing and pipetting steps were repeated. The transformation was complete at this point, and the tails were separated from the heads by rinsing three times with cold HBSS. NTS were then incubated overnight in culture medium overnight and used the next day.
The original stock compounds (which were not already dissolved) were dissolved in dimethyl sulfoxide (DMSO) to a concentration of 10 mM. 100 NTS were placed in each well of a 96-well plate with culture medium, and the test compound for a final well volume of 250 μl. […] NTS incubated with no more than 1% DMSO served as control. NTS were kept in an incubator at 37° C. and 5% CO2 for up to 72 hours. After 72 hours, the condition of the NTS was microscopically evaluated using a scale from 3 (normal activity and no tegument alteration) to 0 (dead, completely granulated).

[3] = tested on: Plasmodium falciparum W2 clone (Indochina, chloroquine-resistant); assay: In vitro antimalarial assay, chloroquine-resistant W2 clone; type: cell-based; conditions: W2 clone; for IC50: converted with molecular weight, read-out: P. falciparum W2 IC50; for X more potent than chloroquine: molar IC50 ratio versus chloroquine
Procedure: as §1

[4] = tested on: L. donovani promastigotes; assay: Antileishmanial Alamar Blue assay on promastigotes; type: cell-based, Leishmania donovani; conditions: for X more potent than Pentamidine: L. donovani, ratio of molar IC50 to Pentamidine; for L. donovani IC50 / IC50: promastigotes, 48 hours, Alamar Blue; for IC50: read-out: L. donavani IC50
Method in brief: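 L. donovani promastigotes in RPMI 1640 with 10% FCS, from 3-day culture, were set at 5×10^5/mL and exposed to compound (50-3.1 μg/mL) for 48 hours at 26° C. Growth read by Alamar Blue fluorescence (ex 544/em 590 nm); IC50 from percent growth versus concentration.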

[5] = tested on: Cryptococcus neoformans ATCC 90113; assay: Antimicrobial microdilution assay against Cryptococcus neoformans (modified CLSI/NCCLS, optical density); type: cell-based; conditions: for X more potent than Amphotericin B: C. neoformans, ratio of molar IC50 to Amphotericin B; for C. neoformans IC50 / IC50: in vitro, C. neoformans ATCC 90113; for IC50: read-out: C. neoformans IC50 (mol/L)
Method in brief: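 Broth microdilution (modified CLSI) in RPMI pH 6.0, samples serially diluted in 20% DMSO/saline and tested in duplicate, growth followed by OD630 before and after incubation. MFC is the lowest concentration giving no growth when 5 μL from clear wells is plated on agar.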

C. krusei ATCC 6258 = assay: Antifungal broth dilution assay against C. krusei (modified CLSI); type: cell-based, Candida krusei; conditions: for C. krusei IC50 / IC50: in vitro; for IC50: read-out: C. krusei IC50 (mol/L)
Method in brief: (§2)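 Modified CLSI broth microdilution with OD monitoring before and after incubation at 35 °C: Candida in RPMI 1640/MOPS pH 6.0, 1.5×10^3 CFU/ml, 46-50 h; Staphylococcus in cation-adjusted Mueller-Hinton pH 7.3, 5.0×10^5 CFU/ml, 16-20 h. IC50 from curve fit; MIC is the lowest concentration with no growth; MFC/MBC from subculture.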

C. glabrata ATCC 90030 = assay: Antifungal broth dilution assay against C. glabrata (modified CLSI); type: cell-based, Candida glabrata; conditions: for C. glabrata IC50 / IC50: in vitro; for IC50: converted with molecular weight; for X more potent than Amphotericin B: molar IC50 ratio versus amphotericin B
Method in brief: as §2

[6] = tested on: Staphylococcus aureus ATCC 29213; assay: Antibacterial broth dilution assay against S. aureus (modified CLSI); type: cell-based
Method in brief: as §2

| Molecule | P. falciparum D6 IC50 [1] [µg/mL] | IC50 [1] [nM] | X more potent than chloroquine [1] | Effect at 72 h (%) ([2]; NTS S. mansoni, 33 μM) | P. falciparum W2 IC50 [3] [µg/mL] | IC50 [3] [nM] | X more potent than chloroquine [3] | X more potent than Pentamidine [4] | L. donovani IC50 [4] [µg/mL] | IC50 [4] [µM] | X more potent than Amphotericin B [5] | C. neoformans IC50 [5] [µg/mL] | IC50 [5] [nM] | also measured |
| --- | --- | --- | --- | --- | --- | --- | --- | --- | --- | --- | --- | --- | --- | --- |
| c1ccc(CN2CCN3CCN(CC2)CCN(Cc2ccccc2)CC3)cc1 [ANC14, Bn2Bcyclen] | 0.5110 | 1350 | 0.03 | 43.24 | 0.7602 | 2010 | 0.34 | 0.53 | 3.80 | 10 |  |  |  |  |
| CN1CCN2CCN(CC1)CCN(Cc1cc(CN3CCN4CCN(C)CCN(CC4)CC3)cc(CN3CCN4CCN(C)CCN(CC4)CC3)c1)CC2 [BNS017, tris-CB-cyclens] |  |  |  | 0.00 |  |  |  | 0.16 | 25.46 | 33.9 | 2.56 | 0.070 | 93.2 | X more potent than Amphotericin B (C. krusei ATCC 6258; C. krusei, ratio of molar IC50 to amphotericin B): 0.19; C. krusei IC50 (C. krusei ATCC 6258): 5.850 µg/mL; IC50 (C. krusei ATCC 6258): 7.79 µM |
| CC(=O)[O-].CC(=O)[O-].CC(=O)[O-].CN1CCN2CCN(CC1)CCN(Cc1cc(CN3CCN4CCN(C)CCN(CC4)CC3)cc(CN3CCN4CCN(C)CCN(CC4)CC3)c1)CC2.F[P-](F)(F)(F)(F)F.F[P-](F)(F)(F)(F)F.F[P-](F)(F)(F)(F)F.F[P-](F)(F)(F)(F)F.F[P-](F)(F)(F)(F)F.F[P-](F)(F)(F)(F)F.[Co+3].[Co+3].[Co+3] [BNS20, [Co3(tris-CB-Cyclens)(OAc)3][PF6]6] |  |  |  | 18.02 |  |  |  |  |  |  | 0.47 | 1.000 | 506 | C. glabrata IC50 (C. glabrata ATCC 90030): 4.720 µg/mL; IC50 (C. glabrata ATCC 90030): 2390 nM; X more potent than Amphotericin B (C. glabrata ATCC 90030): 0.59; C. krusei IC50 (C. krusei ATCC 6258): 0.980 µg/mL; IC50 (C. krusei ATCC 6258): 0.496 µM |
| c1ccc(CN2CCCN3CCN(CCCN(Cc4ccccc4)CC3)CC2)cc1 [JGL45, Bn2Bcyclam] | 1.0894 | 2680 | 0.01 | 81.08 | 0.1772 | 436 | 1.56 | 0.55 | 3.94 | 9.69 |  |  |  | Effect at 72 h (%) ([2]; NTS S. mansoni at 10 μM): 44.83% |
| CC(=O)[O-].CC(=O)[O-].CN1CCCN2CCN(CCCN(Cc3ccc(CN4CCCN5CCN(C)CCCN(CC5)CC4)cc3)CC2)CC1.F[P-](F)(F)(F)(F)F.F[P-](F)(F)(F)(F)F.[Ni+2].[Ni+2] [KS33, [Ni2(p-CB-cyclams)(OAc)2](PF6)2] |  |  |  | 0.00 |  |  |  |  |  |  | 0.26 | 1.020 | 920 | S. aureus IC50 ([6]; in vitro): 8.490 µg/mL; IC50 ([6]; in vitro, converted with molecular weight): 7.66 µM; X more potent than ciprofloxacen ([6]; molar IC50 ratio versus ciprofloxacen): 0.04 |
| [Cl-].[Cl-].[Fe+2].c1ccc(CN2CCCN3CCN(CCCN(Cc4ccccc4)CC3)CC2)cc1 [NS08, Fe(Bn2Bcyclam)Cl2] | 0.1726 | 324 | 0.11 | 18.02 | 0.2271 | 426 | 1.59 | 1.66 | 1.71 | 3.21 |  |  |  | Effect at 72 h (%) ([2]; NTS S. mansoni at 10 μM): 51.72% |
| CC(=O)[O-].CC(=O)[O-].CN(C)C=O.F[P-](F)(F)(F)(F)F.F[P-](F)(F)(F)(F)F.[Co+2].[Co+2].c1cc(CN2CCNCCN3CCN(CC3)CC2)ccc1CN1CCNCCN2CCN(CC2)CC1 [OB30, [Co2(p-SB-Cyclens)(OAc)2][PF6]2•DMF] |  |  |  | 5.41 |  |  |  |  |  |  | 0.33 | ≤ 0.800 | 729 | C. glabrata IC50 (C. glabrata ATCC 90030): 0.800 µg/mL; IC50 (C. glabrata ATCC 90030): 729 nM; X more potent than Amphotericin B (C. glabrata ATCC 90030): 1.95 |
| CC(=O)[O-].F[P-](F)(F)(F)(F)F.[Cu+2].c1ccc(CN2CCCN3CCN(CCCN(Cc4ccccc4)CC3)CC2)cc1 [RM37, [Cu(Bn2Bcyclam)(OAc)]PF6] | 0.2855 | 424 | 0.09 | 100.00 | 0.5451 | 809 | 0.84 | 0.58 | 6.17 | 9.15 |  |  |  | Effect at 72 h (%) ([2]; NTS S. mansoni at 10 μM): 24.14% |
| CC(=O)[O-].F[P-](F)(F)(F)(F)F.[Zn+2].c1ccc(CN2CCCN3CCN(CCCN(Cc4ccccc4)CC3)CC2)cc1 [RM41, [Zn(Bn2Bcyclam)(OAc)]PF6] | 0.2315 |  | 0.11 | 100.00 | 0.4010 |  | 1.14 | 0.38 | 9.51 |  |  |  |  | Effect at 72 h (%) ([2]; NTS S. mansoni at 10 μM): 17.24% |
| CC(=O)[O-].CC(=O)[O-].CN1CCCN2CCN(CCCN(Cc3cccc(CN4CCCN5CCN(C)CCCN(CC5)CC4)c3)CC2)CC1.F[P-](F)(F)(F)(F)F.F[P-](F)(F)(F)(F)F.[Cu+2].[Cu+2] [RM52, [Cu2(m-CB-Cyclams)(OAc)2][PF6]2] |  |  |  | 5.41 |  |  |  |  |  |  | 0.32 | 0.820 | 733 | C. glabrata IC50 (C. glabrata ATCC 90030): 4.940 µg/mL; IC50 (C. glabrata ATCC 90030): 4420 nM; X more potent than Amphotericin B (C. glabrata ATCC 90030): 0.32 |
| CC(=O)[O-].CN1CCCN2CCN(CCCN(Cc3ccccc3)CC2)CC1.F[P-](F)(F)(F)(F)F.[Cu+2] [RM56A, [Cu(Bn1Me1Bcyclam)(OAc)]PF6] | 0.7145 | 1200 | 0.03 | 18.02 | 0.6747 | 1130 | 0.60 | 0.10 | 33.32 | 55.7 |  |  |  |  |
| CC(=O)[O-].F[P-](F)(F)(F)(F)F.[Cu+2].c1ccc(CN2CCN3CCN(CC2)CCN(Cc2ccccc2)CC3)cc1 [RM58] | 0.0947 | 147 | 0.25 | 5.41 | 0.2015 | 312 | 2.18 |  |  |  |  |  |  |  |
| [Cu3(tris-SB-Cyclams)(OAc)3][PF6]3•1.5NH4PF6 [CDG027] |  |  |  | 11.71 |  |  |  |  |  |  | 0.34 | 1.280 | 696 | C. glabrata IC50 (C. glabrata ATCC 90030): 1.630 µg/mL; IC50 (C. glabrata ATCC 90030): 886 nM; X more potent than Amphotericin B (C. glabrata ATCC 90030): 1.60 |
| [Mn(Bn1Me1-CB-Cyclam)Cl2] [NS11] | 0.6142 | 1350 | 0.03 | 5.41 | 0.5300 | 1160 | 0.58 |  |  |  | 0.02 | 5.038 | 11000 |  |
